Source: patent publication US20250064864A1, “MICROBIAL STRAIN OF LACHNOSPIRACEAE, DRUG FOR PREVENTING OR TREATING TUMORS AND USE” (MOON (GUANGZHOU) BIOTECH CO., LTD., priority 2021, published 2025)
Read-outs that look alike come from different tables or passages of the source.

Assays:
[1] = tested on: MNH 46686 strain; assay: Antibiotic susceptibility test by disk diffusion method; type: cell-based, Lachnospiraceae sp. MNH 46686; conditions: for Diameter of inhibition zone: against MNH 46686 strain
Description: 2.4 Antibiotic Susceptibility Test of MNH 46686 Strain by Disk Diffusion Method

[2] = tested on: IFNβ; assay: THP-1 IFNβ-promoter reporter (luciferase) assay; type: cell-based; conditions: 20 μM, 40 μM and 80 μM, 24 h
Description: Interferon (IFN) […] are a group of cytokines secreted by host cells, which can regulate immune responses. Interferons are produced under stimulation by viruses, bacterial endotoxins, synthetic double-stranded RNAs, etc. Macrophages, lymphocytes, somatic cells, etc., in the human body can all produce interferons, in which IFNβ belongs to type I interferons and can promote the activities of NK cells, macrophages, and T lymphocytes. […] Furthermore, the MNH 46686 strain of the present disclosure has been experimentally verified to be able to promote the expression of IFNβ, thereby exerting anti-viral, anti-tumor, immunomodulatory, and other effects. In order to verify whether MNH 46686 can promote the expression of IFNβ, the constructed THP-1 cells (a cell line established by Moon Co.) carrying the IFNβ-promoter reporter were used in this study to evaluate the effect of MNH 46686 on the transcriptional activity of IFNβ. […]
The THP-1-IFNβ-promoter reporter cells were inoculated in a 96-well plate, with 1×10^5 cells per well. […] The chemiluminescence values were detected with a microplate reader. The relative luminescence values were normalized to the untreated group and compared with the relative luminescence readings of the High group to evaluate the effect of MNH 46686 on the transcriptional activity of IFNβ.

| Compound | Note (susceptibility of MNH 46686 strain to the antibiotic) [1] | Diameter of inhibition zone [1] | also measured |
| --- | --- | --- | --- |
| CC1(C)S[C@@H]2[C@H](NC(=O)[C@H](N)c3ccccc3)C(=O)N2[C@H]1C(=O)O [Ampicillin] | Resistant | 0.00 mm | Note (susceptibility of MNH 46686 strain to the antibiotic) ([1]; listed as ampicillin): resistant |
| CO/N=C(\C(=O)N[C@@H]1C(=O)N2C(C(=O)O)=C(CSc3nc(=O)c(=O)[nH]n3C)CS[C@H]12)c1csc(N)n1 [Ceftriaxone] | Resistant | 0.00 mm | Note (susceptibility of MNH 46686 strain to the antibiotic) ([1]; listed as ceftriaxone): resistant |
| O=C(N[C@H](CO)[C@H](O)c1ccc([N+](=O)[O-])cc1)C(Cl)Cl [Chloramphenicol] | Sensitive | 18.45 mm | Note (susceptibility of MNH 46686 strain to the antibiotic) ([1]; listed as chloramphenicol): sensitive |
| O=C(O)c1cn(C2CC2)c2cc(N3CCNCC3)c(F)cc2c1=O [Ciprofloxacin] | Resistant | 0.00 mm | Note (susceptibility of MNH 46686 strain to the antibiotic) ([1]; listed as ciprofloxacin): resistant |
| CC[C@H]1OC(=O)[C@H](C)[C@@H](O[C@H]2C[C@@](C)(OC)[C@@H](O)[C@H](C)O2)[C@H](C)[C@@H](O[C@@H]2O[C@H](C)C[C@H](N(C)C)[C@H]2O)[C@](C)(O)C[C@@H](C)C(=O)[C@H](C)[C@@H](O)[C@]1(C)O [Erythromycin] | Resistant | 0.00 mm | Note (susceptibility of MNH 46686 strain to the antibiotic) ([1]; listed as erythromycin): resistant |
| CCC[C@@H]1C[C@@H](C(=O)N[C@@H]([C@H]2O[C@H](SC)[C@H](O)[C@@H](O)[C@H]2O)[C@@H](C)O)N(C)C1 [Lincomycin] | Resistant | 0.00 mm | Note (susceptibility of MNH 46686 strain to the antibiotic) ([1]; listed as lincomycin): resistant |
| COc1cc2cc(C(=O)CCC(=O)O)sc2cc1OC [MSA-2] | – | – | response of the IFNβ reporter system to the positive drug [2]: good response |
| CN(C)[C@@H]1C(O)=C(C(N)=O)C(=O)[C@@]2(O)C(O)=C3C(=O)c4c(O)cccc4[C@@](C)(O)[C@H]3C[C@@H]12 [Tetracycline] | – | 12.01 mm | – |
| Gentamicin | Sensitive | 10.90 mm | Note (susceptibility of MNH 46686 strain to the antibiotic) ([1]; listed as gentamicin): sensitive |
| Penicillin | Sensitive | 19.69 mm | Note (susceptibility of MNH 46686 strain to the antibiotic) ([1]; listed as penicillin): sensitive |
| Trimethoprim-sulfamethoxazole | Resistant | 0.00 mm | Note (susceptibility of MNH 46686 strain to the antibiotic) ([1]; listed as trimethoprim-sulfamethoxazole): resistant |
